Laboratory results as given in patent US8097610B2, “Derivative having PPAR agonistic activity” (Shionogi & Co., Ltd., priority 2005, dated 2012).

Key:
Assay type in all cases: cell-based
hPPARγ = molecular target: T1, hPPARγ (Homo sapiens, UniProt P37231); assay: Transcriptional activity of PPARγ (Table 9; chimeric transcription factor assay)
T1 construct: expressed in transfected cells
T1 sequence (P37231 238-503 limits assumed): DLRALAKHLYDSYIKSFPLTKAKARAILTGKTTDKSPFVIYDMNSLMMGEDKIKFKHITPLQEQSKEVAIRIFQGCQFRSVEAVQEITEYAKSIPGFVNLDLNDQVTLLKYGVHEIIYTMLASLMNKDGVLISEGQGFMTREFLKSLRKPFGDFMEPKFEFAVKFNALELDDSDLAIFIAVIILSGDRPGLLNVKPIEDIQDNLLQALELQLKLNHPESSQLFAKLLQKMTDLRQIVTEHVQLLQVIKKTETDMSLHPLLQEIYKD
Description: A chimeric transcription factor assay, which is commonly used to detect nuclear receptor activity, was employed to measure PPAR transcriptional activity. Specifically, two plasmids, one that expresses the fusion protein of DNA binding domain of yeast transcription factor GAL4 and a ligand binding domain of a receptor, and a reporter plasmid were transiently transfected to CHO cells. The activity of the promoter containing a recognition sequence of GAL4 coded on the reporter plasmid was used as a parameter to estimate the activity of the receptor. Cell culturing and transfection: CHO cells were cultured in 10% FBS-aMEM. With a 96-well plate (Costar), CHO cells, that were dispersed with trypsin treatment, 20000 cells per well and the two plasmids obtained by the above procedure, 25 ng per well, were transfected with FuGene Reagent (Roche) by following the instruction of the manufacture. […] LUMINOUS […]) is used to measure the activity.

human PPARδ (hPPARδ) = molecular target: T2, human PPARδ (hPPARδ) (Homo sapiens, UniProt Q03181); assay: Test for transcriptional activity of PPARδ (GAL4 chimeric transcription factor reporter assay in CHO cells); details: CHO cells transfected with GAL4-hPPARδ LBD and pG5luc reporter; 24 hours; luciferase activity; concentration showing 1/2 of maximum luciferase activity
T2 construct: δ: aa 139-C-end; α: aa 167-C-end; expressed in transfected cells; host or cells: CHO cells (transient transfection, FuGene)
T2 sequence (Q03181 139-441 limits assumed): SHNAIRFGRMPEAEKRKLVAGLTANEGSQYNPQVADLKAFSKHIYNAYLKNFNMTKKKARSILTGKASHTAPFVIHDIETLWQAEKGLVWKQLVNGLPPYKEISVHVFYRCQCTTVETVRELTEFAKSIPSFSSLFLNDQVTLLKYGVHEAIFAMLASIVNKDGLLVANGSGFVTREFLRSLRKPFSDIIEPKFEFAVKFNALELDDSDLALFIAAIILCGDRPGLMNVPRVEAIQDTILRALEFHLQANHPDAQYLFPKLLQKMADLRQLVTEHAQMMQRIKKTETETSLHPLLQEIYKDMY
Description: (§1) A chimeric transcription factor assay, which is commonly used to detect nuclear receptor activity, was employed to measure PPAR transcriptional activity. Specifically, two plasmids, one that expresses the fusion protein of DNA binding domain of yeast transcription factor GAL4 and a ligand binding domain of a receptor, and a reporter plasmid were transiently transfected to CHO cells. The activity of the promoter containing a recognition sequence of GAL4 coded on the reporter plasmid was used as a parameter to estimate the activity of the receptor.
(§2) Plasmid: The ligand binding domain of human PPARδ (hPPARδ) or α(hPPARα) (δ: aa 139-C-end; α: aa 167-C-end) is obtained by PCR amplification using Human Universal Quick-Clone cDNA (CLONTECH). […] Then, each obtained cDNA fragment was subcloned into pBIND vector (Promega) to construct a plasmid expressing the fusion protein with DNA binding domain of yeast transcription factor GAL4. pG5luc vector (Promega) was used as a reporter plasmid.
(§3) Cell culturing and transfection: CHO cells were cultured in 10% FBS-aMEM. With a 96-well plate (Costar), CHO cells, that were dispersed with trypsin treatment, 20000 cells per well and the two plasmids obtained by the above procedure, 25 ng per well, were transfected with FuGene Reagent (Roche) by following the instruction of the manufacture.
(§4) Measurement of the transcriptional activity: CHO cells 100 μl per well, which were transfected as above, were dispensed into the wells in which a test compound dissolved in DMSO 0.5 μl was spotted in advance. After the cells and a test compound were cultured together for 24 hours in a CO2 incubator, the luciferase activity was measured by adding luciferase substrates, PicaGene LT2.0 (Toyo ink) 100 μl per well. LUMINOUS CT-9000D (DIA-IATRON) is used to measure the activity.

human PPARα (hPPARα) = molecular target: T3, human PPARα (hPPARα) (Homo sapiens, UniProt Q07869); assay: Test for transcriptional activity of PPARα (GAL4 chimeric transcription factor reporter assay in CHO cells); details: CHO cells transfected with GAL4-hPPARα LBD and pG5luc reporter; 24 hours; luciferase activity
T3 construct: δ: aa 139-C-end; α: aa 167-C-end; expressed in transfected cells; host or cells: CHO cells (transient transfection, FuGene)
T3 sequence (Q07869 167-468 limits assumed): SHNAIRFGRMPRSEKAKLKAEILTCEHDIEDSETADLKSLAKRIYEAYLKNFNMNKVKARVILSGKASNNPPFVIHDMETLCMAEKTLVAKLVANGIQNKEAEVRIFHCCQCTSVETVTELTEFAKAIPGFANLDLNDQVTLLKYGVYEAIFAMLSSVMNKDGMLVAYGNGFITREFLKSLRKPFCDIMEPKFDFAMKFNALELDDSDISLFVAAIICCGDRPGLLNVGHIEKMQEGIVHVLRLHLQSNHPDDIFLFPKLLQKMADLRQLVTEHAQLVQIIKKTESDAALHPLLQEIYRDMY
Description: as §1, §2, §3, §4

| Structure (SMILES) | EC50 (hPPARγ) | EC50 (human PPARδ (hPPARδ)) | EC50 (human PPARα (hPPARα)) |
| --- | --- | --- | --- |
| Cc1cc(CC(=O)O)cc(CN2CCN(c3nc4ccc(C(F)(F)F)cc4s3)[C@@H](CC(C)C)C2)c1 [Example 474] | 0.2 µM | 0.0045 µM | 0.35 µM |
| O=C(O)Cc1ccc(CN2CCCN(c3nc4ccc(Cl)cc4s3)CC2)s1 [Example 503] | > 10 µM | 0.91 µM | 1.5 µM |
| COc1ccc(CC(=O)O)cc1OCC1CCN(c2nc3ccc(Cl)cc3s2)CC1 [Example 519] | 0.8 µM | 0.02 µM | 0.54 µM |
| CNc1cccc(-c2cnc(N3CCN(CCOc4cc(CC(=O)O)ccc4Cl)[C@@H](C)C3)s2)c1 [Example 562] | 1.9 µM | 0.029 µM | > 10 µM |
| Cc1cc(CN2C[C@@H](C)N(c3nc4ccc(C(F)(F)F)cc4s3)[C@@H](C)C2)cc(OCC(=O)O)c1 [Example 590] | > 10 µM | 0.026 µM | > 10 µM |
| CCCCN(Cc1cccc(CC(=O)O)c1)C1CCN(c2nc3ccc(Cl)cc3s2)C1 (stereo not drawn) [Example 612, [3-[[butyl[1-(6-chlorobenzothiazole-2-yl)pyrrolidine-3-yl]amino]methyl]phenyl]acetic acid] | 2.2 µM | 0.049 µM | 0.57 µM |
| O=C(O)Cc1cccc(OCCN(C2CCCCC2)C2CCN(c3nc4ccc(Cl)cc4s3)C2)c1 (stereo not drawn) [Example 630] | 4.2 µM | 0.023 µM | 2.6 µM |
| C[C@@H]1CN(C2(CCOc3cc(Cl)cc(CC(=O)O)c3)CCN(c3nc4ccc(Cl)cc4s3)CC2)C[C@H](C)O1 [Example 652] | > 10 µM | 0.28 µM | > 10 µM |
| C[C@H]1CN(c2nc3ccc(Cl)cc3s2)CCN1CCOc1cc(Cl)cc(CC(=O)O)c1 [Example 679] | 0.58 µM | 0.013 µM | 0.96 µM |
| C[C@@H]1CN(c2nc3ccc(Cl)cc3s2)C[C@H](C)N1CCOc1ccc(Cl)c(CC(=O)O)c1 [Example 699] | 0.76 µM | 0.041 µM | 1 µM |
| C[C@@H]1CN(c2ccc(C(F)(F)F)cn2)C[C@H](C)N1CCOc1cc(CC(=O)O)ccc1Cl [Example 707] | 3.3 µM | 0.019 µM | 2.5 µM |
| CCCC[C@@H]1CN(Cc2cc(C)cc(OCC(=O)O)c2)CCN1c1nc2ccc(OC(F)(F)F)cc2s1 [Example 854, [3-[(R)-3-butyl-4-(6-trifluoromethoxybenzothiazole-2-yl)-piperazine-1-ylmethyl]-5-methylphenoxy]acetic acid] | > 10 µM | 0.0044 µM | > 10 µM |
